Values quoted from earlier work in patent publication US9968546B2, “Topical composition for skin treatment to reduce lines and wrinkles of the face and body using a dual DNA repair mechanism to address damage caused by aging and ultra-violet induced damage to the skin with combination of skin turgor enhancement compounds” (priority 2015, dated 2018).

How the values were obtained:
melanin synthesis = settings: concentration of 0.1%
[1] = clinically, versus regular Vitamin E

Question: Which results are given for `CC1(C)C=Cc2c(ccc3c2OC[C@@H](c2ccc(O)cc2O)C3)O1` [Glabridin]?
Answer: tyrosinase-inhibition activity relative to Kojic acid (tyrosinase; versus Kojic acid): 25 times; tyrosinase-inhibition activity relative to ascorbic acid (tyrosinase; versus ascorbic acid): 75 times

Question: Which “reduction of melanin synthesis” value (melanin synthesis) does the source give for `CCCCCCCCC(CCCCCC)C(=O)OC[C@H](OC(=O)C(CCCCCC)CCCCCCCC)[C@H]1OC(=O)C(OC(=O)C(CCCCCC)CCCCCCCC)=C1OC(=O)C(CCCCCC)CCCCCCCC` (stereo partly drawn) [tetrahexyldecyl ascorbate] here?
Answer: 80%

Question: What about the “8-OHdG induced by UV-A radiation” value (8-OHdG) of the same molecule?
Answer: decreases

Question: What about the “p53 expression induced by UV-B radiation” value (p53 expression) of the same molecule?
Answer: decreases

Question: With Tocotrienol as the molecule, how does the “strength and effectiveness at repairing skin damage relative to regular Vitamin E” value [1] read?
Answer: 40-50 times
